The values that follow come from PubChem BioAssay (NCI).

The structures appear in SMILES notation.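 Where inhibition never reached the appropriate level, the endpoint shown equals the highest concentration tested. Otherwise, values were interpolated linearly from a five-concentration, 48-hour dose response in 96-well plates. The concentration for full growth arrest is given as TGI.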 Bounds are passed on as bounds.

Some test systems named below: SW-620 colon; MCF7 breast; MOLT-4 leukemia; HCT-15 colon; NCI-H226 lung; MALME-3M melanoma; BT-549 breast; MDA-MB-435; NCI/ADR-RES ovarian; PC-3 prostate; HCT-116 colon; 786-0 renal; COLO 205 colon; SF-295 CNS; UACC-257 melanoma; SK-MEL-2 melanoma; UO-31 renal; HOP-62 NSCLC; K-562 leukemia; OVCAR-4 ovarian.
What all share (assay): inhibition of tumour cell growth, NCI panel, 48 h

As for `CC(C(=O)NCNC(=O)c1ccccc1)C(=O)NCc1ccccc1` (stereo unspecified), the TGI with SW-620 colon, with MCF7 breast, with MOLT-4 leukemia, in the assay with HCT-15 colon, in the assay with NCI-H226 lung and in the assay on MALME-3M melanoma was > 100 µM each time. The TGI in the assay with BT-549 breast, with MDA-MB-435, with NCI/ADR-RES ovarian, in the assay on PC-3 prostate, in the assay with HCT-116 colon and in the assay with 786-0 renal was > 100 µM throughout. For the same compound, the TGI in the assay on COLO 205 colon, with SF-295 CNS, in the assay with UACC-257 melanoma, in the assay on SK-MEL-2 melanoma and in the assay with UO-31 renal was > 100 µM in each case.

With `CN1CN(c2ccccc2)C2(CCN(CCCN(C)c3ccc(F)cc3)CC2)C1=O`, the TGI amounted to 36.2 µM with SW-620 colon; 29.2 µM in the assay with MCF7 breast; 54.7 µM with MOLT-4 leukemia; 50.1 µM in the assay with HCT-15 colon; 45.1 µM in the assay with NCI-H226 lung; 32.1 µM in the assay on HOP-62 NSCLC. For the same compound, the TGI came to 38.1 µM with MALME-3M melanoma; 31.1 µM in the assay with BT-549 breast; 37.4 µM in the assay on MDA-MB-435; 51.3 µM in the assay with NCI/ADR-RES ovarian; 63.8 µM with PC-3 prostate; 25.4 µM with HCT-116 colon. Moreover, the TGI with 786-0 renal stood at 42.2 µM; in the assay on COLO 205 colon, 24.1 µM; in the assay on SF-295 CNS, 28.3 µM; in the assay on K-562 leukemia, 30.1 µM; in the assay with UACC-257 melanoma, 33.6 µM; with SK-MEL-2 melanoma it was 33.5 µM. The TGI with UO-31 renal was found to be 40.3 µM.

Regarding `CC(=O)OCC1OC(NC(=S)Nn2c(-c3ccccc3)nc3ccccc3c2=O)C(OC(C)=O)C(OC(C)=O)C1OC(C)=O` (stereo unspecified), the TGI with SW-620 colon, in the assay on MCF7 breast, in the assay on MOLT-4 leukemia, in the assay on HCT-15 colon, in the assay on NCI-H226 lung and in the assay on HOP-62 NSCLC was > 100 µM in each case. Also, the TGI in the assay with MALME-3M melanoma, in the assay with BT-549 breast, in the assay on MDA-MB-435, in the assay with NCI/ADR-RES ovarian, in the assay with PC-3 prostate and in the assay on HCT-116 colon was > 100 µM throughout. For the same compound, the TGI in the assay with 786-0 renal was > 100 µM; in the assay with COLO 205 colon, > 100 µM; with SF-295 CNS, > 100 µM; in the assay on K-562 leukemia, > 100 µM; in the assay with UACC-257 melanoma, > 100 µM; in the assay on SK-MEL-2 melanoma, 68.3 µM. Moreover, in the assay with UO-31 renal, the TGI is > 100 µM.

On to `COC(=O)[C@]1(CCC(C)=O)C(=O)C=CN([C@H](C)c2ccccc2)[C@@H]1Cc1ccc(OC)c(OCc2ccccc2)c1I`, for which the TGI was > 100 µM with SW-620 colon; 46.2 µM in the assay on MCF7 breast; > 100 µM in the assay on MOLT-4 leukemia; 43.5 µM with HCT-15 colon; 34.3 µM in the assay on NCI-H226 lung; 51.7 µM in the assay with HOP-62 NSCLC. In addition, the TGI with BT-549 breast came to 46.3 µM; with MDA-MB-435, 42.9 µM; in the assay on NCI/ADR-RES ovarian, 62.8 µM; in the assay on PC-3 prostate it was 74.5 µM; with HCT-116 colon, 27 µM; with 786-0 renal, 34.9 µM. Also, the TGI in the assay on COLO 205 colon is 47.7 µM; in the assay with SF-295 CNS, 35.2 µM; in the assay on OVCAR-4 ovarian it was > 100 µM; in the assay with K-562 leukemia, > 100 µM; with UACC-257 melanoma it was 32.6 µM; with SK-MEL-2 melanoma, 31.7 µM. In the assay with UO-31 renal, this compound showed a TGI of 31.6 µM.

As for `O=[N+]([O-])C1=Cc2c(O)ccc(O)c2C2c3ccccc3NC12` (stereo unspecified), the TGI is > 47.1 µM with SW-620 colon; 11.8 µM with MCF7 breast; > 44.5 µM in the assay on MOLT-4 leukemia; 36.4 µM with HCT-15 colon; > 100 µM in the assay with NCI-H226 lung; 25 µM with HOP-62 NSCLC. The TGI in the assay with BT-549 breast was found to be 25.8 µM; with MDA-MB-435, 28.6 µM; in the assay with NCI/ADR-RES ovarian, 51 µM; with PC-3 prostate, 19 µM; in the assay with HCT-116 colon it was 22.7 µM; with 786-0 renal, 24.7 µM. The TGI was 33.9 µM with COLO 205 colon; 31.5 µM with SF-295 CNS; 30.1 µM in the assay on OVCAR-4 ovarian; > 100 µM in the assay with K-562 leukemia; 29.3 µM in the assay with UACC-257 melanoma; 40.1 µM with SK-MEL-2 melanoma. Moreover, in the assay with UO-31 renal, the TGI came to 11.8 µM.

`COC(=O)c1c(O)ccc2c1c1c(n2CCc2ccccc2)C(=O)c2ccccc2C1`: the TGI was > 100 µM with SW-620 colon; 42.5 µM with MCF7 breast; > 100 µM with MOLT-4 leukemia; 63.8 µM in the assay on HCT-15 colon; 40 µM in the assay with NCI-H226 lung; 52.3 µM in the assay on HOP-62 NSCLC. Besides, the TGI in the assay on MALME-3M melanoma was > 100 µM; in the assay with BT-549 breast, 63.1 µM; in the assay on MDA-MB-435, 67 µM; in the assay on NCI/ADR-RES ovarian, 53.1 µM; with PC-3 prostate, 50.6 µM; with HCT-116 colon it was 35.8 µM. The TGI in the assay with 786-0 renal was 37.9 µM; in the assay on COLO 205 colon, 32.5 µM; in the assay with OVCAR-4 ovarian, 41.4 µM; with K-562 leukemia, > 100 µM; with UACC-257 melanoma, 44 µM; with SK-MEL-2 melanoma, 40.5 µM. Also, in the assay on UO-31 renal, the TGI amounted to 49.7 µM.

Turning to `CC12CCC(C(=Nc3ccc([N+](=O)[O-])cc3)C1=O)C2(C)C` (stereo unspecified), the TGI in the assay on SW-620 colon was 98.4 µM; in the assay on MCF7 breast it was > 100 µM; with HCT-15 colon, > 100 µM; with NCI-H226 lung it was > 100 µM; with HOP-62 NSCLC, 81.9 µM; in the assay on MALME-3M melanoma it was 30 µM. The TGI in the assay with BT-549 breast is > 100 µM; in the assay with MDA-MB-435, 64.6 µM; in the assay on NCI/ADR-RES ovarian, 63.5 µM; in the assay on PC-3 prostate, > 100 µM; in the assay with HCT-116 colon, > 100 µM; in the assay on 786-0 renal, 78.5 µM. In addition, the TGI was 44.6 µM in the assay on COLO 205 colon; > 100 µM in the assay with SF-295 CNS; 69.8 µM in the assay on OVCAR-4 ovarian; 55.2 µM with K-562 leukemia; > 100 µM with UACC-257 melanoma; 49.2 µM in the assay with SK-MEL-2 melanoma. In addition, the TGI with UO-31 renal was > 100 µM.
